These results are taken from PubChem BioAssay (NCI).

Holding throughout (experiment): NCI-60 cell line screen, 48 h
The subject of assay [1] is OVCAR-4 ovarian.
The test system of assay [2] is SNB-19 CNS.
Assay [3] relates to U251 CNS.
The subject of assay [4] is NCI-H226 lung.
Assay [5] has as its system PC-3 prostate.
For assay [6], the system named is SR leukemia.
Assay [7] deals with ACHN renal.
For assay [8], the system named is 786-0 renal.
The subject of assay [9] is OVCAR-5 ovarian.
The subject of assay [10] is SK-MEL-5 melanoma.
Assay [11] has as its system MCF7 breast.
Assay [12] deals with NCI-H23 lung.
Assay [13] deals with TK-10 renal.
For assay [14], the system named is UACC-257 melanoma.
Assay [15] concerns UACC-62 melanoma.
For assay [16], the system named is HL-60(TB) leukemia.
The test system of assay [17] is HCC-2998 colon.

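Test compounds were applied to cells in 96-well plates for 48 hours at 5 doses. The concentration for full growth arrest is given as TGI.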

For `CCN(CC)C(=S)SC(C(=O)Nc1nnc(-c2ccccc2)o1)c1ccccc1` (centres undefined), the TGI in assay [1] was > 100 µM; in [2], > 100 µM; in assay [3], 61.4 µM; in assay [4] it was 74.7 µM; in assay [5], 66.8 µM; in assay [6], 70.7 µM. Also, the TGI in assay [7] was 57.7 µM; in assay [8], 61.1 µM; in assay [9], 56.1 µM; in assay [10], 28.8 µM; in assay [11] it was 47.7 µM; in [12], 34.2 µM. The TGI in assay [13] was > 100 µM; in assay [14] it was 74.5 µM.
Turning to `CC1(c2ccc(Cl)s2)CC(c2ccc(Cl)s2)=C(C#N)C(=C(C#N)C#N)N1` (centres undefined), the TGI was 33.2 µM in assay [1]; 30.7 µM in assay [15]; 44.2 µM in [2]; 33.2 µM in [3]; > 100 µM in [4]; 33.5 µM in assay [5]. For the same molecule, the TGI in [7] was determined as 31.4 µM; in assay [8], 40.6 µM; in assay [9], 35.8 µM; in assay [10], 29.5 µM; in assay [11] it was 39.9 µM; in [16], 40.1 µM. Besides, the TGI in assay [12] was determined as 42.2 µM; in assay [13], 38.1 µM; in [17] it was 34.5 µM; in [14] it was 43.4 µM.
Consider `CN1C(=O)C(O)CC1c1ccccc1C(F)(F)F` (centres undefined), for which the TGI in assay [1], in assay [15], in assay [2], in [3], in assay [4] and in assay [5] was > 100 µM throughout. For the same molecule, the TGI in assay [7], in assay [8], in assay [9], in assay [10], in assay [11] and in [16] was > 100 µM throughout. Besides, the TGI in assay [12], in [17] and in assay [14] was > 100 µM throughout.
In the case of `CC(=O)OCC(C)(COC(C)=O)N1C(=O)C2C3c4ccccc4C(c4ccccc43)C2C1=O` (centres undefined), the TGI in assay [15], in assay [2], in assay [3], in [4], in assay [5] and in [6] was > 100 µM throughout. In addition, the TGI in assay [7], in [8], in assay [9], in [10], in assay [11] and in assay [16] was > 100 µM in each case. The TGI in [12], in assay [13] and in assay [14] was > 100 µM in each case.
Consider `Clc1ccc(OCc2nnc3sc(-c4ccc(-c5ccc(Cl)cc5Cl)o4)nn23)cc1`, for which the TGI in assay [1], in assay [2], in assay [3], in assay [4], in assay [5] and in assay [6] was > 100 µM throughout. The TGI in assay [7], in assay [8], in assay [9], in assay [10], in assay [16] and in assay [12] was > 100 µM in each case. The TGI in [13] and in assay [14] was > 100 µM in each case.
As for `c1ccc(C(=NCCC2CNc3ccccc32)c2ccccc2)cc1` (centres undefined), the TGI in [1], in assay [15], in [2], in [3], in assay [5] and in assay [6] was > 100 µM throughout. For the same molecule, the TGI in assay [7], in assay [8], in assay [9], in [10], in [11] and in assay [12] was > 100 µM throughout. In addition, the TGI in [17] and in [14] was > 100 µM throughout.
Consider `ON[C@H]1C[C@@H](n2cnc3c(NC4CC4)ncnc32)[C@H](O)[C@@H]1O`, for which the TGI in [1], in assay [15], in [2], in assay [3], in [4] and in assay [5] was > 100 µM throughout. Besides, the TGI in assay [6], in assay [7], in assay [8], in assay [9], in assay [10] and in [11] was > 100 µM each time. In addition, the TGI in [12], in [13], in [17] and in [14] was > 100 µM in each case.
In the case of `COc1cc2c(cc1OC)C(=O)C1(C2)[C@H](c2ccccc2)C2C(=O)c3cc(OC)c(OC)cc3C2[C@H]1c1ccccc1` (some centres undefined), the TGI in [1], in assay [15], in [2], in assay [3], in assay [4] and in assay [5] was > 100 µM in each case. The TGI in assay [6], in assay [7], in assay [8], in assay [9], in assay [10] and in assay [16] was > 100 µM throughout. For the same molecule, the TGI in [12], in assay [13], in [17] and in assay [14] was > 100 µM in each case.
Turning to `CN(C)c1ccc(C2CC(c3ccc4ccccc4c3O)=NN2c2ccc([N+](=O)[O-])cc2[N+](=O)[O-])cc1` (centres undefined), the TGI is > 100 µM in assay [1]; 37.2 µM in [15]; > 100 µM in assay [3]; > 100 µM in assay [4]; > 100 µM in assay [5]; 51.3 µM in [6]. Besides, the TGI is > 100 µM in assay [7]; > 100 µM in assay [8]; > 100 µM in assay [9]; > 100 µM in [11]; 77.7 µM in assay [12]; > 100 µM in [13]. For the same molecule, the TGI in assay [17] and in assay [14] was > 100 µM throughout.
